Experiments:
Transthyretin [1] = target: T1, Transthyretin (Homo sapiens, UniProt P02766); experiment: Stabilization of wild-type TTR (unknown origin) expressed in Escherichia coli BL21(DE3) assessed as reduction in urea-induced tetramer dissociation at 3.6 uM preincubated for 30 mins followed by urea addition measured for 100 hrs by fluorescence based assay relative to control; design: scale not given: the % may be the effect or the level left; details: time 100.5 hrs
[2] = test system: Transthyretin (Homo sapiens), P02766 [V50M]; experiment: Stabilization of TTR V30M mutant (unknown origin) expressed in Escherichia coli BL21(DE3) assessed as reduction in urea-induced tetramer dissociation at 3.6 uM preincubated for 30 mins followed by urea addition measured for 100 hrs by fluorescence based assay relative to control; design: scale not given: the % may be the effect or the level left; details: time 100.5 hrs
[3] = test system: Transthyretin (Homo sapiens), P02766 [V142I]; experiment: Stabilization of TTR V122I mutant (unknown origin) expressed in Escherichia coli BL21(DE3) assessed as reduction in urea-induced tetramer dissociation at 3.6 uM preincubated for 30 mins followed by urea addition measured for 100 hrs by fluorescence based assay relative to control; design: scale not given: the % may be the effect or the level left; details: time 100.5 hrs
[4] = Half life in CD-1 mouse at 1 mg/kg, iv measured for 24 hrs by UPLC-MS/MS analysis; type: ADME, organism-based; details: in vivo
[5] = AUC (0 to 24 hrs) in CD-1 mouse at 1 mg/kg, iv by UPLC-MS/MS analysis; type: ADME, organism-based; design: time 24 hrs, dose 1 mg/kg, route iv; details: in vivo
[6] = Cmax in CD-1 mouse at 1 mg/kg, iv measured for 24 hrs by UPLC-MS/MS analysis; type: ADME, organism-based; design: dose 1 mg/kg, time 24 hrs, route iv; details: in vivo
Transthyretin [7] = target: T1, Transthyretin; experiment: Stabilization of wild-type TTR (unknown origin) expressed in Escherichia coli BL21(DE3) assessed as inhibition of TTR aggregation at 1:1 ratio of TTR:compound incubated for 30 mins followed by acidification measured for 72 hrs by turbidimetry relative to control; details: time 72.5 hrs
Transthyretin [8] = target: T1, Transthyretin; experiment: Stabilization of wild-type TTR (unknown origin) expressed in Escherichia coli BL21(DE3) assessed as inhibition of TTR aggregation at 20 uM incubated for 30 mins followed by acidification measured for 72 hrs by turbidimetry relative to control; details: time 72.5 hrs
[9] = test system: Transthyretin (Homo sapiens), P02766 [V50M]; experiment: Stabilization of TTR V30M mutant (unknown origin) expressed in Escherichia coli BL21(DE3) assessed as inhibition of TTR aggregation at 20 uM incubated for 30 mins followed by acidification measured for 72 hrs by turbidimetry relative to control; details: time 72.5 hrs
[10] = test system: Transthyretin (Homo sapiens), P02766 [V142I]; experiment: Stabilization of TTR V122I mutant (unknown origin) expressed in Escherichia coli BL21(DE3) assessed as inhibition of TTR aggregation at 20 uM incubated for 30 mins followed by acidification measured for 72 hrs by turbidimetry relative to control; details: time 72.5 hrs
Transthyretin [11] = target: T1, Transthyretin; experiment: Stabilization of wild-type TTR (unknown origin) expressed in Escherichia coli BL21(DE3) assessed as inhibition of TTR aggregation incubated for 30 mins followed by acidification measured for 72 hrs by turbidimetry relative to control; details: time 72.5 hrs
Transthyretin [12] = target: T1, Transthyretin; experiment: Binding affinity to wild-type TTR (unknown origin) expressed in Escherichia coli BL21(DE3) assessed as dissociation constant by ITC analysis
Transthyretin [13] = target: T1, Transthyretin; experiment: Binding affinity to wild-type TTR (unknown origin) expressed in Escherichia coli BL21(DE3) assessed as change in gibbs free energy at 100 uM by ITC analysis
Transthyretin [14] = target: T1, Transthyretin; experiment: Binding affinity to wild-type TTR (unknown origin) expressed in Escherichia coli BL21(DE3) assessed as change in enthalpy at 100 uM by ITC analysis
Transthyretin [15] = target: T1, Transthyretin; experiment: Binding affinity to wild-type TTR (unknown origin) expressed in Escherichia coli BL21(DE3) assessed as change in entropy at 100 uM by ITC analysis
Transthyretin [16] = target: Transthyretin (Homo sapiens, UniProt P02766, V50M); experiment: Binding affinity to TTR V30M mutant (unknown origin) expressed in Escherichia coli BL21(DE3) assessed as dissociation constant by ITC analysis
[17] = test system: Transthyretin (Homo sapiens), P02766 [V50M]; experiment: Binding affinity to TTR V30M mutant (unknown origin) expressed in Escherichia coli BL21(DE3) assessed as change in gibbs free energy at 100 uM by ITC analysis
[18] = test system: Transthyretin (Homo sapiens), P02766 [V50M]; experiment: Binding affinity to TTR V30M mutant (unknown origin) expressed in Escherichia coli BL21(DE3) assessed as change in enthalpy at 100 uM by ITC analysis
[19] = test system: Transthyretin (Homo sapiens), P02766 [V50M]; experiment: Binding affinity to TTR V30M mutant (unknown origin) expressed in Escherichia coli BL21(DE3) assessed as change in entropy at 100 uM by ITC analysis
Transthyretin [20] = target: Transthyretin (Homo sapiens, UniProt P02766, V142I); experiment: Binding affinity to TTR V122I mutant (unknown origin) expressed in Escherichia coli BL21(DE3) assessed as dissociation constant by ITC analysis
[21] = test system: Transthyretin (Homo sapiens), P02766 [V142I]; experiment: Binding affinity to TTR V122I mutant (unknown origin) expressed in Escherichia coli BL21(DE3) assessed as change in gibbs free energy at 100 uM by ITC analysis
[22] = test system: Transthyretin (Homo sapiens), P02766 [V142I]; experiment: Binding affinity to TTR V122I mutant (unknown origin) expressed in Escherichia coli BL21(DE3) assessed as change in enthalpy at 100 uM by ITC analysis
[23] = test system: Transthyretin (Homo sapiens), P02766 [V142I]; experiment: Binding affinity to TTR V122I mutant (unknown origin) expressed in Escherichia coli BL21(DE3) assessed as change in entropy at 100 uM by ITC analysis
Transthyretin [24] = target: T1, Transthyretin; experiment: Potency index, ratio of Kd for Tolcapone to test compound for wild-type TTR (unknown origin) expressed in Escherichia coli BL21(DE3) assessed as dissociation constant by ITC analysis
[25] = test system: Transthyretin (Homo sapiens), P02766 [V142I]; experiment: Potency index, ratio of Kd for Tolcapone to test compound for TTR V122I mutant (unknown origin) expressed in Escherichia coli BL21(DE3) assessed as dissociation constant by ITC analysis
[26] = test system: Transthyretin (Homo sapiens), P02766 [V50M]; experiment: Potency index, ratio of Kd for Tolcapone to test compound for TTR V30M mutant (unknown origin) expressed in Escherichia coli BL21(DE3) assessed as dissociation constant by ITC analysis
Transthyretin [27] = target: T1, Transthyretin; experiment: Displacement of [125I]-T4 from TTR in human plasma incubated for 1 hr by densitometry relative to control; type: cell-free
[28] = test system: Transthyretin (Homo sapiens), P02766 [V50M]; experiment: Displacement of [125I]-T4 from TTR V30M mutant in human plasma incubated for 1 hr by densitometry relative to control; type: cell-free
[29] = test system: Transthyretin (Homo sapiens), P02766 [V50M]; experiment: Stabilization of TTR V30M mutant in human plasma assessed as degree of tetramer stability at 19.1 uM incubated overnight followed by urea addition measured after 5 hrs by isoelectric focusing based densitometry relative to control; type: cell-free
HeLa = experiment: Cytotoxicity against human HeLa cells assessed as cell viability upto 100 uM incubated for 72 hrs by PrestoBlue assay; type: toxicity, cell-based
HepG2 = experiment: Cytotoxicity against human HepG2 cells assessed as cell viability upto 100 uM incubated for 72 hrs by PrestoBlue assay; type: toxicity, cell-based; details: hepg2, 72 h
MRC5 = experiment: Cytotoxicity against human MRC5 cells assessed as cell viability upto 100 uM incubated for 72 hrs by PrestoBlue assay; type: toxicity, cell-based; details: mrc5, 72 h
[30] = Tmax in CD-1 mouse at 10 mg/kg, po measured for 24 hrs by UPLC-MS/MS analysis; type: ADME, organism-based; details: in vivo
[31] = Cmax in CD-1 mouse at 10 mg/kg, po measured for 24 hrs by UPLC-MS/MS analysis; type: ADME, organism-based; design: dose 10 mg/kg, time 24 hrs, route po; details: in vivo
[32] = AUC (0 to 24 hrs) in CD-1 mouse at 10 mg/kg, po measured for 24 hrs by UPLC-MS/MS analysis; type: ADME, organism-based; design: time 24 hrs, dose 10 mg/kg, route po; details: in vivo
[33] = Half life in CD-1 mouse at 10 mg/kg, po measured for 24 hrs by UPLC-MS/MS analysis; type: ADME, organism-based; details: in vivo
[34] = Elimination rate constant in CD-1 mouse at 1 mg/kg, iv measured for 24 hrs by UPLC-MS/MS analysis; type: ADME, organism-based; details: in vivo
[35] = Volume of distribution in CD-1 mouse at 1 mg/kg, iv measured for 24 hrs by UPLC-MS/MS analysis; type: ADME, organism-based; details: in vivo
[36] = Clearance in CD-1 mouse at 1 mg/kg, iv measured for 24 hrs by UPLC-MS/MS analysis; type: ADME, organism-based; details: in vivo
[37] = Elimination rate constant in CD-1 mouse at 10 mg/kg, po measured for 24 hrs by UPLC-MS/MS analysis; type: ADME, organism-based; details: in vivo
[38] = Volume of distribution in CD-1 mouse at 10 mg/kg, po measured for 24 hrs by UPLC-MS/MS analysis; type: ADME, organism-based; details: in vivo
[39] = Clearance in CD-1 mouse at 10 mg/kg, po measured for 24 hrs by UPLC-MS/MS analysis; type: ADME, organism-based; details: in vivo
[40] = Oral bioavailability in CD-1 mouse at 10 mg/kg measured for 24 hrs by UPLC-MS/MS analysis; type: ADME, organism-based; details: in vivo

With `COc1cc(C(=O)c2cc(O)cc(F)c2)cc([N+](=O)[O-])c1O` the Activity (Transthyretin [1]) was 94.1%, the Activity [2] was 79.2% and the Activity [3] was 92.5%. It also gave a half-life [4] of 3.5 h, an AUC(0-t) at 24 h [5] of 3160 ng·h/mL and a Cmax [6] of 4040 ng/mL. It also gave an inhibition (Transthyretin [7]) greater than 60%, an inhibition (Transthyretin [8]) of 89.2% and an inhibition [9] of 92%. The inhibition [10] was less than 90%, the inhibition (Transthyretin [11]) was greater than 87.5% and the Kd (Transthyretin [12]) was 16 nM. It also gave a deltaG (Transthyretin [13]) of -10.6 kcal/mol, a deltaH (Transthyretin [14]) of -13.4 kcal/mol and a -TdeltaS (Transthyretin [15]) of 2.8 kcal/mol. It also gave a Kd (Transthyretin [16]) of 36 nM, a deltaG [17] of -10.2 kcal/mol and a deltaH [18] of -11 kcal/mol. It also gave a -TdeltaS [19] of 0.8 kcal/mol, a Kd (Transthyretin [20]) of 14 nM and a deltaG [21] of -10.7 kcal/mol. For the same compound, the deltaH [22] was -16.1 kcal/mol, the -TdeltaS [23] was 5.4 kcal/mol and the Ratio (Transthyretin [24]) was greater than 3. The Ratio [25] was greater than 3, the Ratio [26] was greater than 12 and the Activity (Transthyretin [27]) was 97.3%. For the same compound, the Activity [28] was 94.5%, the Activity [29] was 17.4% and the Activity (HeLa) was “Non-Toxic”. For the same compound, the Activity (HepG2) was “Non-Toxic”, the Activity (MRC5) was “Non-Toxic” and the Tmax [30] was 0.5 h. For the same compound, the Cmax [31] was 4180 ng/mL, the AUC(0-t) at 24 h [32] was 26900 ng·h/mL and the half-life [33] was 10.1 h. The k el at 24 h [34] was 5.58e-05 s⁻¹, the Vd [35] was 1.57 L/kg and the clearance [36] was 5.25 mL/min/kg. It also gave a k el at 24 h [37] of 1.92e-05 s⁻¹, a Vd [38] of 4.482 L/kg and a CL/F [39] of 5.13 mL/min/kg. The bioavailability [40] was 85.1%.
Work on `Cc1ccc(C(=O)c2cc(O)c(O)c([N+](=O)[O-])c2)cc1` [TOLCAPONE] yielded a deltaH (Transthyretin [14]) of -13.6 kcal/mol, a -TdeltaS (Transthyretin [15]) of 3.6 kcal/mol and a deltaH [18] of -13.8 kcal/mol. It also gave a -TdeltaS [19] of 5.1 kcal/mol, a deltaH [22] of -12.2 kcal/mol and a -TdeltaS [23] of 2.2 kcal/mol. It also gave an Activity [29] of 4.9%, a Tmax [30] of less than 0.25 h and a Cmax [31] of 7620 ng/mL. The AUC(0-t) at 24 h [32] was 11900 ng·h/mL, the half-life [33] was 1.4 h and the k el at 24 h [37] was 0.000139 s⁻¹. The Vd [38] was 1.6 L/kg and the CL/F [39] was 13.3 mL/min/kg.

Source: ChEMBL document CHEMBL5335793, “PITB: A high affinity transthyretin aggregation inhibitor with optimal pharmacokinetic properties” (Eur J Med Chem, 2023)
